Data taken from patent publication US20130295060A1, “METHOD FOR CULTURING CARDIAC PROGENITOR CELLS AND USE OF CARDIAC PROGENITOR CELLS” (Ewha University-Industry Collaboration Foundation, priority 2012, published 2013).

Assays:
cardiac progenitor cells [1] = test: Effect of concentration of antifibrinolytic agent on cardiac progenitor cell-induced degradation of hydrogel (toluidine blue); format: cell-based; settings: 0.5 or 1.0 mg/ml, 1 day culture
Experimental: 100 μl of the fibrinogen solution containing cardiac progenitor cells was added to 100 μl of each of the respective thrombin solutions containing aminomethylbenzoic acid in concentrations of […], 0.5, and 1.0 mg/ml. After complete formation of hydrogel, cardiac progenitor cells were cultured for 1 day, fixed with formalin, and stained with toluidine blue. An examination was made of the states of the fibrin hydrogels and cells.

[2] = system: cardiac progenitor cell-induced fibrinolysis; test: Inhibition of antifibrinolytic agents against cardiac progenitor cell-induced fibrinolysis (fibrin hydrogel degradation, Alexa Fluor 488-fibrinogen release); format: cell-based
Experimental: The cardiac progenitor cells were mixed at a density of 2×10^5 cells per 100 μl of each of the four fibrinogen solutions with 100 μl of the thrombin solution, followed by a cross-linking reaction for 2 hrs. Following the formation of hydrogel, 300 μl of a cell culture was added to the hydrogel, and incubated for 1 day. A hydrogel void of cardiac progenitor cells was prepared for use as a control.
Antifibrinolytic agents were purchased from Sigma.

myocardial fragments = test: Organ culture of myocardial fragments in fibrin hydrogel with antifibrinolytic agent (phase-contrast microscopy); format: cell-based, human; settings: 100 μg/ml solution added to fibrinogen solution, organ culture 3 days
Experimental: Four fibrinogen solutions with respective concentrations of 2.5, 5.0, 10.0, and 20.0 mg/ml were prepared, and each was added with a 100 μg/ml aminomethylbenzoic acid or tranexamic acid solution, as in Example 5. From the heart of a brain-dead patient, the myocardium was taken after the removal of both the epicardium and the endocardium. […] The myocardial fragments were added at a density of 10 per 0.5 ml of a 1 unit/ml thrombin solution. Each of the four fibrinogen solutions was mixed at a volume ratio of 1:1 with the thrombin solution containing the cardiac fragments. The resulting mixture was aliquoted in an amount of 1 ml per well into 6-multiwell tissue culture plates before performing a polymerization and cross-linking reaction to form a hydrogel.

cardiac progenitor cells [3] = test: Suspension cell culture assay for differentiation into cardiomyocytes (real-time PCR); format: cell-based; settings: 1 mM in medium, 1 and 3 days
Experimental: A suspension of cardiac progenitor cells in a medium inducing myocardial differentiation was seeded at a density of 20,000 to 100,000 cells/well into polymer-coated 24-multiwell tissue culture plates preventive of cell and protein adhesion (Ultra-Low Attachment Surface, Corning, Lowell, Mass.). The medium was supplemented with 1 mM Wnt3a or Dkk1 before culturing the cardiac progenitor cells in a suspension culture condition or a monolayer culture condition. After culturing for 1 and 3 days, RNA was isolated from the cardiac progenitor cells and used to synthesize cDNA. Real-time PCR was performed on this cDNA to quantify mRNA levels of bone morphogenetic protein 2 (BMP2), SOX17, ANP, α-MHC, β-MHC, MLC2a, and MLC2v (myosin light chain-2 ventricle), which are involved in the formation of cardiospheres or the Wnt signaling pathway, thus evaluating the potential to differentiate into cardiomyocytes.

Q: For `NCc1ccc(C(=O)O)cc1` [aminomethylbenzoic acid], which “cytotoxicity to the cardiac progenitor cells” value (cardiac progenitor cells [1]) is on record?
A: caused cytotoxicity

Q: Which “antifibrinolytic activity compared with aminocaproid acid or aprotinin” value [2] does the source give for `NC[C@H]1CC[C@H](C(=O)O)CC1` [tranexamic acid] here?
A: three times as high

Q: What about the “hydrogel as cell adhesion substrate during organ culture of myocardial fragments” value (myocardial fragments) of the same molecule?
A: stable, three-dimensional cell adhesion substrates

Q: aprotinin was tested. Which “degradation of fibrin hydrogel by cardiac progenitor cells” value ([2]; hydrogel containing the antifibrinolytic agent, cardiac progenitor cells embedded, incubated 1 day) did it give?
A: 95%

B1: Dkk1: factor of the Wnt signaling pathway added to the differentiation medium (protein, UniProt O94907 32-266, looked up)
Dickkopf-related protein 1: TLNSVLNSNAIKNLPPPLGGAAGHPGSAVSAAPGILYPGGNKYQTIDNYQPYPCAEDEECGTDEYCASPTRGGDAGVQICLACRKRRKRCMRHAMCCPGNYCKNGICVSSDQNHFRGEIEETITESFGNDHSTLDGYSRRTTLSSKMYHTKGQEGSVCLRSSDCASGLCCARHFWSKICKPVLKEGQVCTKHRRKGSHGLEIFQRCYCGEGLSCRIQKDHHQASNSSRLHTCQRH
Q: How did the “mRNA levels of ANP, α-MHC, β-MHC, MLC-2a and MLC2v” value (cardiac progenitor cells [3]) turn out when B1 was run?
A: reduced

Q: And the “mRNA levels of BMP2 and SOX17” value (cardiac progenitor cells [3])?
A: decreased

B2: Wnt3a: factor of the Wnt signaling pathway added to the differentiation medium (protein, UniProt P56704 19-352, looked up)
Protein Wnt-3a: SYPIWWSLAVGPQYSSLGSQPILCASIPGLVPKQLRFCRNYVEIMPSVAEGIKIGIQECQHQFRGRRWNCTTVHDSLAIFGPVLDKATRESAFVHAIASAGVAFAVTRSCAEGTAAICGCSSRHQGSPGKGWKWGGCSEDIEFGGMVSREFADARENRPDARSAMNRHNNEAGRQAIASHMHLKCKCHGLSGSCEVKTCWWSQPDFRAIGDFLKDKYDSASEMVVEKHRESRGWVETLRPRYTYFKVPTERDLVYYEASPNFCEPNPETGSFGTRDRTCNVSSHGIDGCDLLCCGRGHNARAERRREKCRCVFHWCCYVSCQECTRVYDVHTCK
Q: Which results are given for B2?
A: mRNA levels of ANP, α-MHC, β-MHC, MLC-2a and MLC2v (cardiac progenitor cells [3]): increased; mRNA levels of BMP2 and SOX17 (cardiac progenitor cells [3]): increased
